In general, inhibition in vivo refers to the change of the read-out against control, counted positive when it falls.

The source made the active and inactive calls. The calls are words filed in the database; no cut-off is given here.

In one assay the test system is Rattus norvegicus. The assay can be described thus: Anti-allodynic activity in rat model of capsaicin-induced inflammatory paw pain assessed as inhibition of mechanical allodynia at 5 uM administered intrathecally 30 mins prior to capsaicin induction and measured at 10 mins interval for 65 mins by von frey test relative to control. The assay is classed as functional. The following applies: central, 1.583 h, time 95 min.
With `O=C(Nc1c[nH]c(=O)c(-c2cccc3[nH]ccc23)c1)c1ccc([N+](=O)[O-])cc1`, the inhibition in vivo at 5 µM came to 58%. As to `COc1ncc(Nc2ccncc2)cc1-c1cccc2[nH]ccc12`, the inhibition in vivo at 5 µM is 85%. On the same count and under the same terms, to `O=c1[nH]cc(Nc2ccncc2)cc1-c1cccc2[nH]ccc12` belongs 56%. As for `O=c1[nH]cc(OC2CCNCC2)cc1-c1cccc2[nH]ccc12`, the inhibition in vivo at 5 µM turned out to be 64%.

Still in this assay, the particulars now being: time 95.0 min.
On to `CCN(CC)CCCn1ccc2c(-c3cc(Nc4ccncc4)c[nH]c3=O)cccc21`, for which the inhibition entry was “inactive”.

For the compound `Cn1ccc2c(-c3cc(Nc4ccncc4)c[nH]c3=O)cccc21`, the inhibition result was “inactive”. On the same count and under the same terms, to `CN(c1ccncc1)c1c[nH]c(=O)c(-c2cccc3[nH]ccc23)c1` belongs “Active”.

Take `CCN(CC)CCCCn1ccc2c(-c3cc(Nc4ccncc4)c[nH]c3=O)cccc21`: the inhibition result was “inactive”.

As to `O=c1[nH]cc(Oc2ccncc2)cc1-c1cccc2[nH]ccc12`, the inhibition entry was “Active”. Turning to `O=C(Nc1c[nH]c(=O)c(-c2cccc3[nH]ccc23)c1)c1ccncc1`, the inhibition result was “Active”. In the case of `O=c1[nH]cc(Oc2ccc([N+](=O)[O-])cc2)cc1-c1cccc2[nH]ccc12`, the inhibition entry was “Active”. In the case of `O=C(Nc1c[nH]c(=O)c(-c2cccc3[nH]ccc23)c1)C1CCNCC1`, the inhibition result is “Active”.

(Values after ChEMBL document CHEMBL5576153, “Synthesis of diversely substituted pyridin-2(1H)-ones and in vivo evaluation of their anti-allodynic effect on cutaneous inflammatory mechanical allodynia” (2024).)
